The source of these data is patent publication US5175153A, “Substituted alpha-amino acids having pharmaceutical activity” (Warner-Lambert Company, priority 1988, dated 1992).

Molecules are shown by their SMILES. Like-named read-outs stand apart in the source and are kept apart here.

One data set addresses NMDA receptor. Kind of data set: NMDA receptor binding assay using [^3 H]CPP as antagonist ligand. Particulars: for IC50: [^3 H]CPP.
In data set [1] the test system is NMDA-Induced Subconvulsant Behavior. Kind of data set: Inhibitory effects in NMDA-induced subconvulsant behavior (tail biting) in Fisher rats. Conditions: for % Responders: 30 min before 50 mg/kg IV NMDA; for Latency (min ± S.E.) / % I: 30 min before NMDA; for Latency (min ± S.E.): 60 minutes=maximum; for % I: [1 - % test responders/% control responders] × 100. Format: in vivo. How it is done: In a modification of those methods, subconvulsant tail biting was induced in Fisher rats by intravenous injection of 50 mg/kg NMDA. The incidence (%) and response time (60 minutes=maximum) of control and drug treated rats (I.P., 30 minutes before NMDA) were compared. The inhibitory effects of 2-amino-7-phosphonoheptanoic acid and Example VIII are shown in Table 2 (% responders and time (latency in minutes)).
*Rats were dosed IP, 2 mls/kg 30 min before NMDA.
**% I = [1 - % test responders/% control responders] × 100.

The subject of data set [2] is NMDA-induced seizure and death. Kind of data set: Inhibition of NMDA-induced seizures and death in mice. In kind it is in vivo, male CF-1 mice. Conditions: Mus musculus. How it is done:
Intraperitoneal injection of N-methyl-D-aspartic acid (NMDA) has been previously reported to induce clonic seizures in C57BL/6J mice (Bernard, P.S. et al, Models of N-methyl-D -aspartate antagonism: A comparison of 2-amino-7-phosphonoheptanoic acid with muscle relaxant drugs, 15th Annual Meeting, International Society for Neuroscience, 1985). In a modified version of the above protocol, male CF-1 mice received an intravenous injection of 25 mg/kg NMDA--behind the lateral aspect of the right eye. This induced a rapidly onsetting seizure followed shortly thereafter by death. […] ED50 were determined for inhibition of seizures and death through comparison of drug treatment groups (n=10) with their respective vehicle controls (n=10).

Data set [3] in a line: Observation of drug effects or normal behavior in rats dosed with NMDA.
The mark [4] stands for this setting: 0.5 h, IV, five minutes prior to 25 mg/kg IV NMDA, survivors at thirty minutes, read-out: Inhibition of Death ED50.
Setting [5] is: IV, five minutes prior to 25 mg/kg IV NMDA, read-out: Inhibition of Seizures ED50.

Excerpt for NMDA receptor: The activity of the compounds of the formula I is shown in vitro in an NMDA receptor binding assay based on the use of [^3 H]CPP as antagonist ligand in a manner essentially as set out by B. E. Murphy et al in J. Pharm.

With `NC(C(=O)O)c1cccc(P(=O)(O)O)c1` (racemic) [Example VI A, (±)-α-Amino-3-Phosphonobenzeneacetic Acid], the IC50 (as a rule, the concentration that gives 50% inhibition) at NMDA receptor was determined as 17.9 µM.

For `NC(C(=O)O)c1ccc(CP(=O)(O)O)cc1` (racemic) [Example VIII, (±)-α-Amino-4-(Phosphonomethyl)Benzeneacetic Acid], the IC50 at NMDA receptor is 0.99 µM. The “most active of the most preferred compounds” value in the data set on NMDA receptor (in words, test not given) is “most active compound”. Further, the “% Responders” value in data set [1] (25 mg/kg IP, phosphate buffer control 9/10) is 2/9; in data set [1] (37 mg/kg IP, phosphate buffer control 9/10) it was 1/10. The “Latency (min ± S.E.)” value is reported as 51.6 ± 5.6 min in data set [1] (25 mg/kg IP, p < 0.01, phosphate buffer 24.8 ± 4.9) and 55.5 ± 4.5 min in data set [1] (37 mg/kg IP, p < 0.001, phosphate buffer 24.8 ± 4.9). Also, the “% I” value in data set [1] (25 mg/kg IP) came to 77.8%; in data set [1] (37 mg/kg IP) it was 88.9%. In data set [1] (in words, Table 2), the “inhibitory effects compared with 7-APH” value is “inhibitory effects similar in potency and efficacy to 7-APH”. In addition, the ED50 (commonly the midpoint of the dose-response relation) was 7.6 mg/kg in data set [2] (setting [4]) and over 30 mg/kg in data set [2] (setting [5]). For the same compound, the “drug induced behavioral effects” value in data set [3] (37 mg/kg and 25 mg/kg IP) is reported as “no drug induced behavioral effects”.

`NC(CCCCCP(=O)(O)O)C(=O)O` (centres unmarked) [APH, 2-amino-7-phosphonoheptanoic acid, reference compound] displayed a concentration for half-maximal inhibition (IC50) at NMDA receptor of 0.8 µM. In addition, the “% Responders” value was 6/10 in data set [1] (10 mg/kg IP, saline control 9/10) and 1/10 in data set [1] (30 mg/kg IP, saline control 9/11). The “Latency (min ± S.E.)” value in data set [1] (10 mg/kg IP, p < 0.001, saline 15.8 ± 5.3) came out at 43.3 ± 5.8 min; in data set [1] (30 mg/kg IP, p < 0.01, saline 33.1 ± 5.8), 59.0 ± 1.0 min. The “% I” value is on record as 33.3% in data set [1] (10 mg/kg IP) and 87.8% in data set [1] (30 mg/kg IP). Also, the ED50 in data set [2] (iv, 0.5 h, read-out: Inhibition of Death ED50) was 30 mg/kg; in data set [2] (iv, read-out: Inhibition of Seizures ED50), over 30 mg/kg. Also, in data set [3] (10 mg/kg IP), the “drug induced behavioral effects” value is “no drug induced behavioral effects”. Besides, the ataxia result in data set [3] (30 mg/kg IP) is “no ataxia”. Besides, the exploratory behavior entry in data set [3] (30 mg/kg IP, versus controls) is given as “slightly less exploratory than controls”.

`NC(C(=O)O)c1cccc(CP(=O)(O)O)c1` (stereo not drawn) [Example II, Benzeneacetic Acid, α-Amino-3-(Phosphonomethyl)-] had an IC50 at NMDA receptor of 11.8 µM.

Take `NC(Cc1cccc(CP(=O)(O)O)c1)C(=O)O` (centres unmarked) [Example III]: the IC50 at NMDA receptor was 3.56 µM. In addition, the ED50 in data set [2] (setting [4]) was 37 mg/kg; in data set [2] (setting [5]) it was about 60 mg/kg.
